These results are taken from patent publication US11926629B1, “Pyrido[3′,4′:4,5]pyrrolo[2,3-c]isoquinoline compounds as CK2 inhibitors” (KING FAISAL UNIVERSITY, priority 2023, dated 2024).

For one experiment, the system named is HCT116 (colon). The experiment is described as follows: In vitro cytotoxic activity (MTT) assay, HCT116. Conditions: Homo sapiens, HCT-116; HCT116 (colon) cells, exposed for 96 hours; read-out: IC50, 50% inhibition of cell proliferation. Type of experiment: cell-based. How it is done:
(§1) Compounds 1-15 were screened for their in vitro cytotoxic activity utilizing a 3-(4,5-dimethyl-thiazol-2-yl)-2,5-diphenyltetrazolium bromide (MTT) assay against selected cancer human cell lines consisting of PC3 (prostate). HCT116 (colon), A375 (melanoma), H1299 (lung). MIAPaCa-2 (pancreas), HL60 (leukemia). MCF7 (breast), MDA-MB-231 (breast) (T. Mosmann, J. Immunol. Meth., 1983, 65, 55-63). The cells were cultured at 37° C. in RMPI1640 medium supplemented with 10% fetal bovine serum, 50 IU/mL penicillin, and 50 μg/mL streptomycin in a 5% CO2 incubator. All cells were sub-cultured 3 times/week by trypsinisation. Viable cells were seeded and allowed to adhere for 12 h before a test drug was added in 96-well plates at an initial density of 1.0×10^5 cells/mL. Tumour cell lines were separately exposed to various concentrations of the tested compounds followed by incubation at a temperature of 37° C. during 96 h inside a medium of fresh RMPI 1640. Cells were subsequently incubated at 37° C. using MTT at 0.5 mg/mL during 4 h. After removal of supernatant, formazan crystals were dissolved in isopropanol and the optical density was measured at 570 nm. CX-4945 was used as a positive control.

For experiment [1], the target named is T1, recombinant human CK2 (RRββ-holoenzyme) (Homo sapiens, UniProt P68400).
T1 construct: purchased Millipore
Put plainly: CK2 Kinase Assay. Conditions: final ATP concentration 15 μM, 10 min at 30° C.; read-out: IC50 protein kinase CK2 activity. Type of experiment: biochemical. As to the method: CK2 Kinase Assay was conducted using the protocol as described in Pierre F. et al; J. Med. Chem. 2011, 54, 635-654. The tested compounds in aqueous solution were added at a volume of 10 μL to a reaction mixture comprising 10 μL of assay dilution buffer (ADB; 20 mM MOPS, pH 7.2, 25 mM β-glycerol phosphate, 5 mM EGTA, 1 mM sodium orthovanadate, and 1 mM dithiothreitol), 10 μL of substrate peptide (RRRDDDSDDD, dissolved in ADB at a concentration of 1 mM), 10 μL of recombinant human CK2 (RRββ-holoenzyme, 25 ng dissolved in ADB; Millipore). Reactions were initiated by the addition of 10 μL of ATP solution (90% 75 mMMgCl2, 75 μM ATP (final ATP concentration:15 μM) dissolved in ADB; 10% [γ-33P] ATP (stock 1 mCi/100 μL; 3000 Ci/mmol (Perkin-Elmer) and maintained for 10 min at 30° C. The reactions were quenched with 100 μL of 0.75% phosphoric acid and then transferred to and filtered through a phosphor cellulose filter plate (Millipore). After washing each well five times with 0.75% phosphoric acid, the plate was dried under vacuum for 5 min and, following the addition of 15 μL of scintillation fluid to each well, the residual radioactivity was measured using a Wallac luminescence counter. The IC50 values were derived from eight concentrations of test inhibitors.

A further experiment concerns MIAPaCa-2 (pancreas). The experiment is described as follows: In vitro cytotoxic activity (MTT) assay, MIAPaCa-2. Type of experiment: cell-based. As to conditions: Homo sapiens, MIA PaCa-2; MIAPaCa-2 (pancreas) cells, exposed for 96 hours; read-out: IC50, 50% inhibition of cell proliferation. As to the method:
as §1

A further experiment concerns PC3 (prostate). The experiment is described as follows: In vitro cytotoxic activity (MTT) assay, PC3. Type of experiment: cell-based. Conditions: Homo sapiens, Prostate cell; PC3 (prostate) cells, exposed for 96 hours; read-out: IC50, 50% inhibition of cell proliferation. As to the method:
as §1

The next experiment relates to A375 (melanoma). The experiment is described as follows: In vitro cytotoxic activity (MTT) assay, A375. Type of experiment: cell-based. Conditions: Homo sapiens, A-375; A375 (melanoma) cells, exposed for 96 hours; read-out: IC50, 50% inhibition of cell proliferation. How it is done: as §1
A further experiment concerns HL60 (leukemia). The experiment is described as follows: In vitro cytotoxic activity (MTT) assay, HL60. It counts as cell-based. As to conditions: Homo sapiens, HL-60; HL60 (leukemia) cells, exposed for 96 hours; read-out: IC50, 50% inhibition of cell proliferation. How it is done: as §1
The test system of another experiment is MDA-MB-231 (breast). The experiment is described as follows: In vitro cytotoxic activity (MTT) assay, MDA-MB-231. It counts as cell-based. Conditions: Homo sapiens; MDA-MB-231 (breast) cells, exposed for 96 hours; read-out: IC50, 50% inhibition of cell proliferation. How it is done: as §1
Another experiment concerns MCF7 (breast). Put plainly: In vitro cytotoxic activity (MTT) assay, MCF7. It counts as cell-based. As to conditions: Homo sapiens; MCF7 (breast) cells, exposed for 96 hours; read-out: IC50, 50% inhibition of cell proliferation. How it is done: as §1
The next experiment concerns H1299 (lung). The experiment is described as follows: In vitro cytotoxic activity (MTT) assay, H1299. It counts as cell-based. Conditions: Homo sapiens, NCI-H1299; H1299 (lung) cells, exposed for 96 hours; read-out: IC50, 50% inhibition of cell proliferation. As to the method:
as §1

T1 sequence (P68400 whole entry): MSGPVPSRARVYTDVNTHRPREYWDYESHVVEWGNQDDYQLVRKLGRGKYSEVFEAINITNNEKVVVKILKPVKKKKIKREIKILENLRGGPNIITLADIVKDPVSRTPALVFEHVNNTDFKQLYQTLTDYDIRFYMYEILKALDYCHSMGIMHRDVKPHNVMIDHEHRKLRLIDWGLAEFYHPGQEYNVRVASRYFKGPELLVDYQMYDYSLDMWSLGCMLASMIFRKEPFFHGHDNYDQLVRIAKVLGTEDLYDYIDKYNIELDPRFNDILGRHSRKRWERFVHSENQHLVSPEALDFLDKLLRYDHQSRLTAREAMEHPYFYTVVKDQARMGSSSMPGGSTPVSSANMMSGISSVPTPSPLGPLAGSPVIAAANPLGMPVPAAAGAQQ
T1 sequence (P67870 whole entry partner): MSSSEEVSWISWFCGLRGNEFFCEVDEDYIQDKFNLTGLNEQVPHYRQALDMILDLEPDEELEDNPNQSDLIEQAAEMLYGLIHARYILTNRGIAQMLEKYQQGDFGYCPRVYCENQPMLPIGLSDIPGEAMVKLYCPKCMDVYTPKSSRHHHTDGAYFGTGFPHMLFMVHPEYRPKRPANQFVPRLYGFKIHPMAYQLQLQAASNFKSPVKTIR

For the molecule `O=C(O)c1ccc2c(c1)c(Nc1cccc(Cl)c1)nc1[nH]c3ccncc3c12` [Compound 1, 5-((3-chlorophenyl)amino)-7H-pyrido[3′,4′:4,5]pyrrolo[2,3-c]isoquinoline-3-carboxylic acid], the IC50 came to 2000 nM in the experiment on HCT116 (colon); 86 nM in experiment [1]; 1200 nM with MIAPaCa-2 (pancreas); 1100 nM with PC3 (prostate); 3300 nM in the experiment with A375 (melanoma); 4300 nM with HL60 (leukemia). In addition, the IC50 was 4400 nM in the experiment with MDA-MB-231 (breast), 3600 nM in the experiment on MCF7 (breast) and 900 nM in the experiment on H1299 (lung).
